This is an account of results in EP2316926B1, “Enantioselective production of alpha-hydroxy carbonyl compounds” (priority 2009, dated 2011).

Structures are written as SMILES.

Experiment [1] concerns the target Gox0644 (Gluconobacter oxydans, UniProt Q5FT75). Kind of experiment: Coupled-enzyme biotransformation with cofactor regeneration, product determined by NMR (regio- and stereoselectivity). The class given is biochemical. How it is done: (§1) Measurement of enzyme activity: NADPH-dependent α-ketocarbonyl reductases were assayed by a routine method used for NAD(P)-linked enzymes by recording the rate of decrease of NADPH at 340 nm (ε = 6.22 mM^-1 x cm^-1)) with substrates at 30 °C. The reaction mixture (1 ml) for reduction of α-ketocarbonyl substrates contained 10 mM substrate, 40 mM potassium phosphate buffer pH 7.0, 0.025 mM NAD(P)H and the enzyme. Reactions were induced by addition of enzyme or substrate. One unit was defined as the amount of enzyme activity catalyzing the conversion of 1 µmol of pyridine nucleotide per min at 30 °C. NMR Analysis of Biotransformation Products: Biotransformations were extracted with equal volumes of CDCl3. and ^13C NMR spectra were recorded on a Bruker Avance 300 DPX spectrometer operating at 300 MHz for ^1H NMR and at 75 MHz for ^13C NMR, respectively. Spectra were processed using Bruker TonSpin 1.3 for Windows software and calibrated to the residual solvent peak of CDCl3 (δH = 7.26 / δC = 77.0).
(§2) Determination of the absolute configuration of the biotransformation product 2-hydroxy-pentan-3-one using chiral NMR shift solvents: Chiral NMR shift reagent (R,R)- and (S,S)-bis-α-methylbenzylamine-para-methyl (BMBA-p-Me) was prepared with small modifications according to the method reported by Kobayashi, Y et al., Tetrahedron Lett. 44: 7489-7491 (2003). In brief, the method of Marshall, J.A. and Mikowski, A. M., Org. Lett. 8:4375-4378 (2006) was used to synthesize 1,3-dibromo-2-methylpropane from 1,3-dihydroxy-2-methylpropane. Diisopropylethylamine (25.5 g), triphenylphosphine (20.1 g) and CBr4 (25.5 g) were sequentially added to a stirring solution of […] in 100 ml CH2Cl2 at 0 °C. The reaction was stirred for 3-4 h at 0 °C and concentrated under reduced pressure to give a green-brown oil. The oil was dissolved in diethyl ether and water (100 ml each) and the aqueous layer was extracted three times with diethyl ether. The organic extracts were combined and washed with water and brine, and dried over MgSO4. The reaction was concentrated under reduced pressure and applied to flash chromatography on silica 60 (230-400 mesh, 100% cyclohexane). Fractions containing the 1,3-dibromo-2-methylpropane product were combined (as judged by Si-TLC [100% cyclohexene]) and concentrated under reduced pressure resulting in a brown-yellow oil. The dibromopropane oil was used for the synthesis of (R,R)- and (S,S)-BMBA-p-Me as described by (Kobayashi, Y. et al., Org. Lett. 4(3):411-414 (2002). The crude oil was distilled by Kugelrohr at 240 °C to give crude BMPA-p-Me (yellow oil). BMBA-p-Me was purified by HPLC using a C18 column (Waters Xterra, 250 x 4.6 mm) at a flow rate of 0.8 ml min^-1 and a 40 min linear gradient of 50-100 % MeOH at ambient temperature. Fractions were concentrated under reduced pressure and BMBA-p-Me was identified by ^1H-NMR (colorless hygroscopic oil).
(§3) Approximately 7.5 mg of the extracted product 2-hydroxy-pentan-3-one was added to 15 mg (R,R)- or (S,S)-BMBA-p-Me (dissolved in 200-300 µl CDCl3) and analyzed by ^13C NMR with the readout adjusted to 0.001 ppm/point (sw = 239 ppm, td = 512k) (Fiorentino, A. et al., Tetrahedron., 62:8952-8958 (2006)). The absolute configuration was determined based on the sign of ΔδRR-SS (δ(R,R)-BMBA-p-Me - δ(S,S)-BMBA-p-Me) for the α-carbons adjacent to the hydroxymethine unit as formulated in the following model shown in Scheme 3 (valid for saturated secondary alcohols of acyclic and cyclic compounds): [drawing 7]
(§4) Cofactor regeneration: A prerequisite for the production of α-hydroxycarbonyl compounds is the regeneration of the expensive coenzymes and the stability of the protein catalysts. By coupling two coenzyme-dependent enzyme reactions, NADPH can be continuously regenerated. […]

The target of experiment [2] is T1, Gox1615 (Gluconobacter oxydans, UniProt Q5FQJ0).
T1 sequence (Q5FQJ0 1-332): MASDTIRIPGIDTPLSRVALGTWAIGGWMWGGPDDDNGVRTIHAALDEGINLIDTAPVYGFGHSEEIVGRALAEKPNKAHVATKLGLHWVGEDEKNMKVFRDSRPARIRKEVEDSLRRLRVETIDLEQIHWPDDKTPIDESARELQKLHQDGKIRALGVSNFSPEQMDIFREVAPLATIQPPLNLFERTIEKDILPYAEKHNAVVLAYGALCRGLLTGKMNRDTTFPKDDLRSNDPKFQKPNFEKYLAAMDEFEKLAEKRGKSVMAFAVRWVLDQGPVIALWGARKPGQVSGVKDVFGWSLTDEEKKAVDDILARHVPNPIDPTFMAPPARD
The experiment is described as above. The format is biochemical. How it is done:
as §1, §2, §3, §4

The mark [3] stands for this setting: NMR with chiral solvent BMBA-p-Me.

As to `CCC(=O)C(C)=O` [2,3-pentanedione], the “Product (stereoselective reduction)” value amounted to 2R-hydroxy-pentan-3-one in experiment [1] (setting [3]) and 2S-hydroxy-pentan-3-one in experiment [2] (setting [3]). In addition, the “Product (regioselective reduction)” value in experiment [1] (determined by NMR analysis) and in experiment [2] (determined by NMR analysis) was 2-hydroxy-pentan-3-one each time.
